Data set [1] is described as follows: Toxicity in RANKL and TNFalpha-pretreated mouse RAW264 cells assessed as inhibition of cell proliferation upto 100 uM incubated for 3 days by WST-1 assay. The settings on record: raw264, 72 h.
A short description of data set [2]: Toxicity in RANKL and TNFalpha-pretreated mouse RAW264 cells assessed as effect on cell proliferation upto 50 uM incubated for 3 days by WST-1 assay. The settings on record: raw264, 72 h. A general note: Formazan colour is commonly taken as a measure of viable cells.
Data set [3] concerns Radical scavenging activity. Kind of data set: Antioxidant activity assessed as DPPH radical scavenging activity at 1.6 mM after 20 mins by UV spectrophotometry. It is filed as functional. (DPPH is a stable violet radical that fades when it is reduced.)
Data set [4] can be described thus: Inhibition of RANKL and TNF-alpha-induced osteoclastogenesis in mouse RAW264 cells incubated for 3 days by TRAP staining based method. The settings on record: RAW264.7, 72 h. The format is functional, cell-based.
In data set [5] the test system is Radical scavenging activity. Kind of data set: Antioxidant activity assessed as DPPH radical scavenging activity at 0.2 mM after 20 mins by UV spectrophotometry. The format is functional.
The nature of data set [6]: Toxicity in RANKL and TNFalpha-pretreated mouse RAW264 cells assessed as inhibition of cell proliferation incubated for 3 days by WST-1 assay. The note with it: RAW264 cells pretreated with RANKL and TNFalpha.

A word on the IC50: it is the midpoint of a concentration-inhibition curve. As to `CC(C)=CCC[C@@](C)(O)[C@H]1CC[C@]2(C)[C@@H]1[C@H](O)C[C@@H]1[C@@]3(C)CC[C@H](O[C@@H]4O[C@H](CO)[C@@H](O)[C@H](O)[C@H]4O)C(C)(C)[C@@H]3CC[C@]12C`, the Activity result in data set [1] is “Non-toxic”; in data set [2], “Non-toxic”; in data set [3] it was < 10%. The compound also showed an IC50 in data set [4] of 12 µM.

`Cc1c(C)c2c(c(C)c1O)CC[C@@](C)(CCC[C@H](C)CCC[C@H](C)CCCC(C)C)O2`: the Activity in data set [5] was 96%.

On to `CC(C)=CCC[C@](C)(O)[C@H]1CC[C@]2(C)[C@@H]1[C@H](O)C[C@@H]1[C@@]3(C)CC[C@H](O[C@@H]4O[C@H](CO)[C@@H](O)[C@H](O)[C@H]4O)C(C)(C)[C@@H]3CC[C@]12C` [GINSENOSIDE RH2], for which the Activity in data set [3] is < 10%. In data set [6], the IC50 at 3 days is 62 µM. This compound displayed an IC50 in data set [4] of 32 µM.

The record behind these values is ChEMBL document CHEMBL1782014, “20(R)-ginsenoside Rh2, not 20(S), is a selective osteoclastgenesis inhibitor without any cytotoxicity” (Bioorg Med Chem Lett, 2009).
